The record followed here is PMC4549706, “Rational Design of Highly Potent and Slow-Binding Cytochrome bc1 Inhibitor as Fungicide by Computational Substitution Optimization” (Scientific Reports, 2015).

For test [1], the system named is Sphaerotheca fuliginea (S. fuliginea). Kind of test: Greenhouse fungicidal activity, potted cucumber, powdery mildew. It is filed as in vivo. Conditions: Podosphaera fuliginea. On the procedure: (§1) For a further validation, the controlling efficacy of compound 18 against downy mildew and powdery mildew disease was tested in greenhouse and field models.
(§2) The fungicidal activity of compound 18 against P. cubensis and S. fuliginea was evaluated according to a previously published method[30] and a potted-plant test method was adopted. […]
(§3) Greenhouse Fungicidal Activity
(§4) The fungicidal activity of compound 18 against P. cubensis and S. fuliginea was evaluated according to a previously published method 17 and a potted-plant test method was adopted. Commercial fungicide AZ was evaluated as a control under the same conditions.
(§5) Cucumber seeds were soaked in water for 2 h at 50℃ and then were kept moist for 24 h at 28℃ in an incubator. When the radicles grew to 0.5 cm, the seeds were grown in plastic pots containing a 1:1 (v/v) mixture of vermiculite and peat. At the stage of two leaves, all of the cucumber plants used for inoculations were divided into two groups to test for protective and curative effects. In the protective action, compound 18 and commercial fungicide AZ were sprayed on the leaves before the inoculation. However, the fungal inoculation and chemical spraying are reverse in the […] action.
(§6) In the protective action, compound 18 and commercial fungicide AZ were sprayed with a hand spray on the surface of the seed leaves at concentrations of 200, 100, 50, 25, 12.5, 6.25, 3.125, 1.5625 mg/L. After 2 h, inoculations of P. cubensis and S. fuliginea were carried out by spraying a conidial suspension (concentration […]), which was repeated 4 times.
(§7) After inoculation, the cucumber seedlings were cultured in a culture room at 25±2℃, 70%~80% relative humidity, and 16L:8D photoperiod for 8 d. In the curative action, the fungal inoculation and chemical spraying were reversed with the protective action. Foliar spray with fungicides to inoculated cucumber plants (before disease expression) till near-run-oﬀ was made on the 7th and 15th day after emergence. The fungicidal activity was evaluated when the nontreated cucumber plant fully developed symptoms. The area of inoculated and treated leaves covered by disease symptoms was assessed and compared to that of nontreated ones to determine the average disease index.
(§8) The disease range (i) was visually evaluated on the […]rst true leaf and ranked as a percentage infected area using a rating of 0, 1, 3, 5, 7, or 9, denoting proportions of disease over the whole leaf area of 0%, < 5%, 6–10%, 11–25%, 26–50%, and > 50%, respectively 18.
(§9) The disease index and control effect of compound 18 were calculated via the following […]
(§10) Disease index (%) = ∑(Ni × i)/(N × 9) × 100 […]

The test system of test [2] is Pseudoperonospora cubensis (P. cubensis). Kind of test: Greenhouse fungicidal activity, potted cucumber, downy mildew. Format: in vivo. On the procedure:
as §1, §2, §3, §4, §5, §6, §7, §8, §9, §10

Converted amounts (≈) assume the structure as drawn. Read-outs that look alike come from different tables or passages of the source.

For the compound `CO/C=C(/C(=O)OC)c1ccccc1Oc1cc(Oc2ccccc2C#N)ncn1` [AZ, Azoxystrobin, reference compound], the EC90 in test [1] (greenhouse, cucumber, sprayed after inoculation, read-out: curative EC90 against S. fuliginea) was more than 500 µg/mL; in test [1] (greenhouse, cucumber, sprayed before inoculation, read-out: protective EC90 against S. fuliginea), 254 µg/mL (≈ 630 µM); in test [2] (greenhouse, cucumber, sprayed after inoculation, read-out: curative EC90 against P. cubensis) it was 50.7 µg/mL (≈ 126 µM); in test [2] (greenhouse, cucumber, sprayed before inoculation, read-out: protective EC90 against P. cubensis), 5.36 µg/mL (≈ 13.3 µM).
Regarding `COC=C(C(=O)OC)c1ccccc1CSc1nc2cc(OC)ccc2s1` [Compound 18], the EC90 in test [1] (read-out: curative EC90 against S. fuliginea) was 32.9 µg/mL (≈ 81.9 µM); in test [1] (read-out: protective EC90 against S. fuliginea), 1.89 µg/mL (≈ 4.71 µM); in test [2] (read-out: curative EC90 against P. cubensis), 120 µg/mL (≈ 300 µM); in test [2] (read-out: protective EC90 against P. cubensis), 4.29 µg/mL (≈ 10.7 µM).
